Key:
TYK2 = molecular target: T1, TYK2 (Homo sapiens, UniProt P29597); assay: TYK2 kinase ADP-Glo assay (Example 60)
T1 sequence (P29597 871-1187 limits assumed): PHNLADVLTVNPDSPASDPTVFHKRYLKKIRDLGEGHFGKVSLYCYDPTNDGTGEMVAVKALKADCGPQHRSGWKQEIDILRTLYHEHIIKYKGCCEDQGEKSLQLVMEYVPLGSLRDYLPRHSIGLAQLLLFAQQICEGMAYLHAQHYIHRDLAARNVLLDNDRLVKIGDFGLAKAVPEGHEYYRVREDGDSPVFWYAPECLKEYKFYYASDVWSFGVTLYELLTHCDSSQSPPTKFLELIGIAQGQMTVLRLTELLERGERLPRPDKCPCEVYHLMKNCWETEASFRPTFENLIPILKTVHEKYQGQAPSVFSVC

JAK1 = JAK1 (Homo sapiens, UniProt P23458); assay: JAK1 kinase ADP-Glo assay (Example 60)
JAK3 = JAK3 (Homo sapiens, UniProt P52333); assay: JAK3 kinase ADP-Glo assay (Example 60)
JAK2 = JAK2 (Homo sapiens, UniProt O60674); assay: JAK2 kinase ADP-Glo assay (Example 60)
Chain of JAK2 (O60674 826-1132 limits assumed): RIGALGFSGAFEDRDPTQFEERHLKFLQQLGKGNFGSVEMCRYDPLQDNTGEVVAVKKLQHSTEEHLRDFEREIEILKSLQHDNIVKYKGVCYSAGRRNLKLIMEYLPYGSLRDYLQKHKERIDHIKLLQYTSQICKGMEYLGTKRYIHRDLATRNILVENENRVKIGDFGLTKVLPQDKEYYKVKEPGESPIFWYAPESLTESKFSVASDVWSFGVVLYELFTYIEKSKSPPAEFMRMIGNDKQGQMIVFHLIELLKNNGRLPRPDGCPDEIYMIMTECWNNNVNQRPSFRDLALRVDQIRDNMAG

Chain of JAK3 (P52333 795-1124 limits assumed): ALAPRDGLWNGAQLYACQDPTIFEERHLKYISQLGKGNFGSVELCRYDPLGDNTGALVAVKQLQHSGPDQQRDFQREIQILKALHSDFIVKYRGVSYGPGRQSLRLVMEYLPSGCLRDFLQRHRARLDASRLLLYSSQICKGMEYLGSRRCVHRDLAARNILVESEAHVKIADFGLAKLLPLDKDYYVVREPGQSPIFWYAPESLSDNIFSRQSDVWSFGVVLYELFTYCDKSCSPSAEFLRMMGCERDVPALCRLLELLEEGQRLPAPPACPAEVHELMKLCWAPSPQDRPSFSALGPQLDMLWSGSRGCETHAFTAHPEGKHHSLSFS
Chain of JAK1 (P23458 850-1154 limits assumed): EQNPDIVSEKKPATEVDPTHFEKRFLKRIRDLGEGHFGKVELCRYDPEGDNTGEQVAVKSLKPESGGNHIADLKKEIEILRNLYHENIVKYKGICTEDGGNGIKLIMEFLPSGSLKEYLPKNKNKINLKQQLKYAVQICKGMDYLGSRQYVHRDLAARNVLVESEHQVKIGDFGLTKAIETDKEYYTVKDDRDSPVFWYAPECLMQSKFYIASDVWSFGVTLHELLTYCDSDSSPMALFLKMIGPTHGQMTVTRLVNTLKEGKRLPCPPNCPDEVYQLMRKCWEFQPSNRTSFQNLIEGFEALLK

| SMILES | IC50 (TYK2) [nM] | IC50 (JAK1) [nM] | IC50 (JAK3) [nM] | IC50 (JAK2) [nM] |
| --- | --- | --- | --- | --- |
| CCc1cc(O)c(F)cc1-c1ccc2c(-c3nc4c([nH]3)CN(CC3CC3)C4)n[nH]c2c1 [MDI-208, 4-(3-(5-(cyclopropylmethyl)-1,4,5,6-tetrahydropyrrolo[3,4-d]imidazol-2-yl)-1H-indazol-6-yl)-5-ethyl-2-fluorophenol] | 9.31 | 0.153 | 1.11 | 0.44 |
| CCc1cc(O)c(F)cc1-c1ccc2c(-c3nc4c([nH]3)CN(C(=O)c3ccnnc3)C4)n[nH]c2c1 [MDI-214, (2-(6-(2-ethyl-5-fluoro-4-hydroxyphenyl)-1H-indazol-3-yl)-pyrrolo[3,4-d]imidazol-5-(1H,4H,6H)-yl)(pyridazin-4-yl)ketone] | 2.8 | 0.303 | 0.352 | 0.273 |
| CCc1cc(O)c(F)cc1-c1ccc2c(-c3nc4c([nH]3)CN(C(=O)c3cccnn3)C4)n[nH]c2c1 [MDI-215, (2-(6-(2-ethyl-5-fluoro-4-hydroxyphenyl)-1H-indazol-3-yl)-pyrrolo[3,4-d]imidazol-5-(1H,4H,6H)-yl)(pyridazin-3-yl)ketone] | 1.58 | 0.197 | 0.308 | 0.277 |
| CCc1cc(O)c(F)cc1-c1ccc2c(-c3nc4c([nH]3)CN(S(=O)(=O)C3CCC3)C4)n[nH]c2c1 [MDI-219, 4-(3-(5-(cyclobutylsulfonyl)-1,4,5,6-tetrahydropyrrolo[3,4-d]imidazol-2-yl)-1H-indazol-6-yl)-5-ethyl-2-fluorophenol] | 1.88 | 1.38 | 2.29 | 1.38 |
| CCc1cc(O)c(F)cc1-c1ccc2c(-c3nc4c([nH]3)CN(Cc3cnn(C)c3)C4)n[nH]c2c1 [MDI-221, 5-ethyl-2-fluoro-4-(3-(5-((1-methyl-1H-pyrazol-4-yl)methyl)-1,4,5,6-tetrahydropyrrolo[3,4-d]imidazol-2-yl)-1H-indazol-6-yl)phenol] | 7.6 | 0.128 | 0.379 | 0.363 |
| CCc1cc(O)c(F)cc1-c1ccc2c(-c3nc4c([nH]3)CN(C(=O)N3CC[C@H](O)C3)C4)n[nH]c2n1 [MDI-255, (S)-(2-(6-(2-ethyl-5-fluoro-4-hydroxyphenyl)-1H-pyrazolo[3,4-b]pyridine-3-yl)-4,6-dihydropyrrolo[3,4-d]imidazol-5(1H)-yl)(3-hydroxylpyrrolidin-1-yl)ketone] |  | 57.2 |  | 37.4 |

Continued by falling IC50 (JAK1), values first:

| IC50 (TYK2) [nM] | IC50 (JAK1) [nM] | IC50 (JAK3) [nM] | IC50 (JAK2) [nM] | SMILES |
| --- | --- | --- | --- | --- |
| 5.56 | 2.02 | 3.15 | 1.38 | CCc1cc(O)c(F)cc1-c1ccc2c(-c3nc4c([nH]3)CN(S(=O)(=O)C3CCCC3)C4)n[nH]c2c1 [MDI-220, 4-(3-(5-(cyclopentylsulfonyl)-1,4,5,6-tetrahydropyrrolo[3,4-d]imidazol-2-yl)-1H-indazol-6-yl)-5-ethyl-2-fluorophenol] |
| 1.75 | 0.825 | 0.948 | 0.614 | CCc1cc(O)c(F)cc1-c1ccc2c(-c3nc4c([nH]3)CN(S(=O)(=O)C3CC3)C4)n[nH]c2c1 [MDI-218, 4-(3-(5-(cyclopropanesulfonyl)-1,4,5,6-tetrahydropyrrolo[3,4-d]imidazol-2-yl)-1H-indazol-6-yl)-5-ethyl-2-fluorophenol] |
| 31.5 | 0.347 | 0.979 | 1.11 | CCc1cc(O)c(F)cc1-c1ccc2c(-c3nc4c([nH]3)CN(CC3CCC3)C4)n[nH]c2c1 [MDI-210, 4-(3-(5-(cyclobutylmethyl)-1,4,5,6-tetrahydropyrrolo[3,4-d]imidazol-2-yl)-1H-indazol-6-yl)-5-ethyl-2-fluorophenol] |
| 1.62 | 0.134 | 0.247 | 0.233 | CCc1cc(O)c(F)cc1-c1ccc2c(-c3nc4c([nH]3)CN(C(=O)N3CC[C@H](O)C3)C4)n[nH]c2c1 [MDI-216, (S)-(2-(6-(2-ethyl-5-fluoro-4-hydroxyphenyl)-1H-indazol-3-yl)-4,6-dihydropyrrolo[3,4-d]imidazol-5-(1H)-yl)(3-hydroxylpyrrolidin-1-yl)ketone] |

— US12180215B2, “Substituted pyrrolo[3,4-d]imidazoles as JAK inhibitors” (HENAN MEDINNO PHARMACEUTICAL TECHNOLOGY CO., LTD., priority 2019, dated 2024)
